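Dose response: 5 concentrations. Exposure: 48 h. Format: 96-well plates. Endpoint: linear interpolation; highest concentration if not reached. GI50 is the concentration that inhibits growth by half. TGI: concentration producing complete growth inhibition.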
How the values were obtained:
Test in all cases: NCI-60 cell line screen, 48 h
[1] = test system: 786-0 renal
[2] = test system: A498 renal
[3] = test system: A549 NSCLC
[4] = test system: ACHN renal
[5] = test system: BT-549 breast
[6] = test system: CAKI-1 renal
[7] = test system: CCRF-CEM leukemia
[8] = test system: COLO 205 colon
[9] = test system: DU-145 prostate
[10] = test system: EKVX NSCLC
[11] = test system: HCC-2998 colon
[12] = test system: HCT-116 colon
[13] = test system: HCT-15 colon
[14] = test system: HL-60(TB) leukemia
[15] = test system: HOP-62 NSCLC
[16] = test system: HOP-92 NSCLC
[17] = test system: HS 578T breast
[18] = test system: HT29 colon
[19] = test system: IGROV1 ovarian
[20] = test system: K-562 leukemia
[21] = test system: KM12 colon
[22] = test system: LOX IMVI melanoma
[23] = test system: M14 melanoma
[24] = test system: MALME-3M melanoma
[25] = test system: MCF7 breast
[26] = test system: MDA-MB-231 breast
[27] = test system: MDA-MB-435
[28] = test system: MDA-MB-468 breast
[29] = test system: MOLT-4 leukemia
[30] = test system: NCI-H226 lung
[31] = test system: NCI-H23 lung
[32] = test system: NCI-H460 lung
[33] = test system: NCI-H522 lung
[34] = test system: NCI/ADR-RES ovarian
[35] = test system: OVCAR-3 ovarian
[36] = test system: OVCAR-4 ovarian
[37] = test system: OVCAR-5 ovarian
[38] = test system: OVCAR-8 ovarian
[39] = test system: PC-3 prostate
[40] = test system: RPMI-8226 leukemia
[41] = test system: RXF 393 renal
[42] = test system: SF-268 CNS
[43] = test system: SF-295 CNS
[44] = test system: SF-539 CNS
[45] = test system: SK-MEL-2 melanoma
[46] = test system: SK-MEL-28 melanoma
[47] = test system: SK-MEL-5 melanoma
[48] = test system: SK-OV-3 ovarian
[49] = test system: SN12C renal
[50] = test system: SNB-19 CNS
[51] = test system: SNB-75 CNS
[52] = test system: SR leukemia
[53] = test system: SW-620 colon
[54] = test system: T-47D breast
[55] = test system: TK-10 renal
[56] = test system: U251 CNS
[57] = test system: UACC-257 melanoma
[58] = test system: UACC-62 melanoma
[59] = test system: UO-31 renal

Compound: COC(=O)c1c(C(=O)OC)c2ccc3c4ccccc4ccc3n2c1C(=O)C(C)Br (centres undefined)
- GI50 [1]: 21.1 µM
- TGI [1]: > 100 µM
- GI50 [2]: 88.1 µM
- TGI [2]: > 100 µM
- GI50 [3]: 42.2 µM
- TGI [3]: > 100 µM
- GI50 [4]: 22.2 µM
- TGI [4]: > 100 µM
- GI50 [5]: 6.18 µM
- TGI [5]: 40.2 µM
- GI50 [6]: 21.2 µM
- TGI [6]: > 100 µM
- GI50 [7]: 3.92 µM
- TGI [7]: > 100 µM
- GI50 [8]: 38.8 µM
- TGI [8]: > 100 µM
- GI50 [9]: > 100 µM
- TGI [9]: > 100 µM
- GI50 [10]: 42.4 µM
- TGI [10]: > 100 µM
- GI50 [11]: 39.9 µM
- TGI [11]: > 100 µM
- GI50 [12]: 11 µM
- TGI [12]: > 100 µM
- GI50 [13]: 6.17 µM
- TGI [13]: 30.3 µM
- GI50 [14]: 5.39 µM
- TGI [14]: > 100 µM
- GI50 [15]: 33.1 µM
- TGI [15]: > 100 µM
- GI50 [16]: 15.2 µM
- TGI [16]: > 100 µM
- GI50 [17]: 18.8 µM
- TGI [17]: 92.7 µM
- GI50 [18]: 20.6 µM
- TGI [18]: > 100 µM
- GI50 [19]: 33.2 µM
- TGI [19]: > 100 µM
- GI50 [20]: 6.48 µM
- TGI [20]: > 100 µM
- GI50 [21]: > 100 µM
- TGI [21]: > 100 µM
- GI50 [22]: 4.35 µM
- TGI [22]: 23.7 µM
- GI50 [23]: 31.3 µM
- TGI [23]: > 100 µM
- GI50 [24]: 6.1 µM
- TGI [24]: 43 µM
- GI50 [25]: 4.58 µM
- TGI [25]: > 100 µM
- GI50 [26]: 4.72 µM
- TGI [26]: 35.8 µM
- GI50 [27]: 16.1 µM
- TGI [27]: > 100 µM
- GI50 [28]: 13.2 µM
- TGI [28]: 52.4 µM
- GI50 [29]: 3.3 µM
- TGI [29]: > 100 µM
- GI50 [30]: 25.6 µM
- TGI [30]: > 100 µM
- GI50 [31]: 12.9 µM
- TGI [31]: > 100 µM
- GI50 [32]: 17.8 µM
- TGI [32]: > 100 µM
- GI50 [33]: 3.07 µM
- TGI [33]: 15.2 µM
- GI50 [34]: 17.7 µM
- TGI [34]: > 100 µM
- GI50 [35]: 16.9 µM
- TGI [35]: > 100 µM
- GI50 [36]: 25.6 µM
- TGI [36]: > 100 µM
- GI50 [37]: 22.5 µM
- TGI [37]: > 100 µM
- GI50 [38]: 14.9 µM
- TGI [38]: > 100 µM
- GI50 [39]: 17.8 µM
- TGI [39]: > 100 µM
- GI50 [40]: 7.43 µM
- TGI [40]: 48.1 µM
- GI50 [41]: 2.79 µM
- TGI [41]: 36.7 µM
- GI50 [42]: 34.4 µM
- TGI [42]: > 100 µM
- GI50 [43]: 28.3 µM
- TGI [43]: > 100 µM
- GI50 [44]: 10.9 µM
- TGI [44]: 25.6 µM
- GI50 [45]: 17.9 µM
- TGI [45]: 94.1 µM
- GI50 [46]: 25.7 µM
- TGI [46]: > 100 µM
- GI50 [47]: 13 µM
- TGI [47]: 46.8 µM
- GI50 [48]: > 100 µM
- TGI [48]: > 100 µM
- GI50 [49]: 17.2 µM
- TGI [49]: > 100 µM
- GI50 [50]: 51.5 µM
- TGI [50]: > 100 µM
- GI50 [51]: 24.7 µM
- TGI [51]: > 100 µM
- GI50 [52]: 5.87 µM
- TGI [52]: > 100 µM
- GI50 [53]: 7.26 µM
- TGI [53]: 58.3 µM
- GI50 [54]: 11.5 µM
- TGI [54]: > 100 µM
- GI50 [55]: 76.3 µM
- TGI [55]: > 100 µM
- GI50 [56]: 18.3 µM
- TGI [56]: > 100 µM
- GI50 [57]: 44.2 µM
- TGI [57]: > 100 µM
- GI50 [58]: 11.9 µM
- TGI [58]: > 100 µM
- GI50 [59]: 24.9 µM
- TGI [59]: > 100 µM

Compound: C=C1CC[C@@H]2[C@]3(C)COC(c4ccco4)O[C@@H]3CC[C@@]2(C)[C@@H]1C/C=C1/C(=O)OCC1OC(C)=O (some centres undefined)
- GI50 [1]: 18 µM
- TGI [1]: 32.8 µM
- GI50 [2]: > 100 µM
- TGI [2]: > 100 µM
- GI50 [3]: 28.2 µM
- TGI [3]: > 100 µM
- GI50 [4]: 14.9 µM
- TGI [4]: 28.8 µM
- GI50 [5]: 15 µM
- TGI [5]: 29.1 µM
- GI50 [6]: 15.8 µM
- TGI [6]: 32.2 µM
- GI50 [7]: 2.56 µM
- TGI [7]: 9.9 µM
- GI50 [8]: 16 µM
- TGI [8]: 31.3 µM
- GI50 [9]: 15.2 µM
- TGI [9]: 29.5 µM
- GI50 [10]: 14.5 µM
- TGI [10]: 31.4 µM
- GI50 [11]: 16.8 µM
- TGI [11]: 31.4 µM
- GI50 [12]: 10.8 µM
- TGI [12]: 26 µM
- GI50 [13]: 15.6 µM
- TGI [13]: 38.4 µM
- GI50 [14]: 9.35 µM
- TGI [14]: 85.6 µM
- GI50 [15]: 21.8 µM
- TGI [15]: 55.7 µM
- GI50 [16]: 12.3 µM
- TGI [16]: 45.2 µM
- GI50 [17]: 26.1 µM
- TGI [17]: > 100 µM
- GI50 [18]: 13.8 µM
- TGI [18]: 30.7 µM
- GI50 [19]: 16.5 µM
- TGI [19]: 34.2 µM
- GI50 [20]: 5.84 µM
- TGI [20]: > 100 µM
- GI50 [21]: 21.7 µM
- TGI [21]: 68.7 µM
- GI50 [22]: 11.8 µM
- TGI [22]: 24.1 µM
- GI50 [23]: 16.3 µM
- TGI [23]: 34.2 µM
- GI50 [24]: 14.7 µM
- TGI [24]: 29.3 µM
- GI50 [25]: 12.4 µM
- TGI [25]: 32.4 µM
- GI50 [26]: 15 µM
- TGI [26]: 30.9 µM
- GI50 [27]: 15.6 µM
- TGI [27]: 37 µM
- GI50 [28]: 13.4 µM
- TGI [28]: 26.6 µM
- GI50 [29]: 19.6 µM
- TGI [29]: > 100 µM
- GI50 [30]: 16.6 µM
- TGI [30]: 35.1 µM
- GI50 [31]: 17.6 µM
- TGI [31]: 35.2 µM
- GI50 [32]: 18.2 µM
- TGI [32]: 38.6 µM
- GI50 [33]: 13.6 µM
- TGI [33]: 26.7 µM
- GI50 [34]: 17 µM
- TGI [34]: 38 µM
- GI50 [35]: 10.8 µM
- TGI [35]: 26.6 µM
- GI50 [36]: 13.5 µM
- TGI [36]: 38.4 µM
- GI50 [37]: 17.6 µM
- TGI [37]: 31.9 µM
- GI50 [38]: 12.8 µM
- TGI [38]: 28.7 µM
- GI50 [39]: 13.2 µM
- TGI [39]: 39.6 µM
- GI50 [40]: 3.11 µM
- TGI [40]: 38.1 µM
- GI50 [41]: 11.1 µM
- TGI [41]: 24.9 µM
- GI50 [42]: 27.9 µM
- TGI [42]: > 100 µM
- GI50 [43]: 25.9 µM
- TGI [43]: > 100 µM
- GI50 [44]: 14 µM
- TGI [44]: 27 µM
- GI50 [45]: 14.6 µM
- TGI [45]: 29 µM
- GI50 [46]: 15.7 µM
- TGI [46]: 29.7 µM
- GI50 [47]: 15.8 µM
- TGI [47]: 31.3 µM
- GI50 [48]: 57.7 µM
- TGI [48]: > 100 µM
- GI50 [49]: 14.4 µM
- TGI [49]: 30.6 µM
- GI50 [50]: 25.3 µM
- TGI [50]: 84.2 µM
- GI50 [51]: 5.83 µM
- TGI [51]: 49.6 µM
- GI50 [53]: 9.77 µM
- TGI [53]: 23.8 µM
- GI50 [54]: 18.6 µM
- TGI [54]: 55.1 µM
- GI50 [55]: 25.9 µM
- TGI [55]: 62.4 µM
- GI50 [56]: 15.2 µM
- TGI [56]: 28.6 µM
- GI50 [57]: 15.5 µM
- TGI [57]: 32.8 µM
- GI50 [58]: 13.6 µM
- TGI [58]: 28.8 µM
- GI50 [59]: 13.2 µM
- TGI [59]: 26 µM

Source: PubChem BioAssay (NCI)
